Here are results for nine molecules from patent US20160362416A1, “ANTIVIRAL COMPOUNDS” (Gilead Sciences, Inc., priority 2012, published 2016).

For test [1], the system named is NS5A chimeric genotype 1b Con1 replicon with genotype 3a S52 strain NS5A gene. The test can be described thus: HCV genotype 3a NS5A chimeric replicon assay. Format: cell-based. Conditions: Hepatitis C virus, 72 h, read-out: 3a (nM). Summed up:
(§1)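 Chimeric replicons for 3a and 4a use a Pi-RLuc reporter and were transiently transfected into Huh-Lunet cells; the 2b chimera (RLuc-Neo) was likewise transient in Huh-Lunet; 1b cells are stable. Cells were exposed to 3-fold serial compound dilutions for 72 h, then lysed. EC50s came from non-linear regression of Renilla luciferase signal.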
On the technique in general: In antiviral work, replicon cells carry a viral genome segment that copies itself.

In test [2] the test system is Y93H in genotype 3a NS5A replicon. The test can be described thus: Resistance mutant replicon assay, genotype 3a NS5A Y93H. Particulars: Hepatitis C virus, read-out: 3a Y93H (nM). The test is classed as cell-based, HCV. Summed up: (§2)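 Transiently transfected Huh-7-derived cured-51 cells carrying site-directed NS5A mutant Pi-RLuc replicons are exposed to compound for 72 h. Luciferase output is fitted by non-linear regression to give EC50.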

The test system of test [3] is NS5A chimeric genotype 1b Con1 replicon with genotype 4a ED43 strain NS5A gene. The test can be described thus: HCV genotype 4a NS5A chimeric replicon assay. The test is classed as cell-based. Conditions: Hepatitis C virus, 72 h, read-out: 4a (s) (nM).
Test [4] concerns Q30E in genotype 1a NS5A replicon. The test can be described thus: Resistance mutant replicon assay, genotype 1a NS5A Q30E. The test is classed as cell-based, HCV. Conditions: Hepatitis C virus, read-out: 1a Q30E (nM). Summed up: as §2
The subject of test [5] is NS5A chimeric genotype 2a JFH-1 replicon with genotype 2b MD2b-1 strain NS5A gene (M31). The test can be described thus: HCV genotype 2b NS5A chimeric replicon assay, transient (t). Conditions: Hepatitis C virus, 72 h, read-out: 2b (t) (nM). Format: cell-based. Summed up: as §1
Test [6] relates to NS5A chimeric genotype 2a JFH-1 replicon with genotype 2a J6 strain NS5A gene (M31). The test can be described thus: HCV genotype 2a J6 NS5A chimeric replicon assay, transient (t). The test is classed as cell-based. Particulars: Hepatitis C virus, 72 h, read-out: 2a J6 (t) (nM).
In test [7] the test system is NS5A chimeric genotype 2a JFH-1 replicon with genotype 2b MD2b-1 strain NS5A gene (M31). The test can be described thus: HCV genotype 2b NS5A chimeric replicon assay, stable (s). Conditions: Hepatitis C virus, 72 h, read-out: 2b (s) (nM). Format: cell-based.
In test [8] the test system is Y93N in genotype 1a NS5A replicon. The test can be described thus: Resistance mutant replicon assay, genotype 1a NS5A Y93N. Format: cell-based, HCV. Conditions: Hepatitis C virus, read-out: 1a Y93N (nM). Summed up:
as §2

Consider `COC(=O)N[C@H](C(=O)N1[C@@H](C)CC[C@H]1c1ncc(-c2ccc3c(c2)COc2cc4c(ccc5nc([C@@H]6CC[C@H](C)N6C(=O)[C@@H](NC(=O)OC)C6CC(C)O[C@H](C)C6)[nH]c54)cc2-3)[nH]1)C(C)C` (stereo in doubt) [Example AQ, Methyl {(2S)-1-[(2S,5S)-2-(5-{2-[(2S,5S)-1-{(2S)-2-[(2R,6R)-2,6-dimethyltetrahydro-2H-pyran-4-yl]-2-[(methoxycarbonyl)amino]acetyl}-5-methylpyrrolidin-2-yl]-1,11-dihydroisochromeno[4′,3′:6,7]naphtho[1,2-d]imidazol-9-yl}-1H-imidazol-2-yl)-5-methylpyrrolidin-1-yl]-3-methyl-1-oxobutan-2-yl}carbamate], for which the EC50 in test [1] worked out at 0.017 nM; in test [2] it was 0.703 nM; in test [3], 0.012 nM; in test [4], 0.074 nM; in test [5], 0.016 nM; in test [6], 0.011 nM. In addition, the EC50 in test [7] is 0.032 nM; in test [8], 0.337 nM.
As to `CC[C@H]1CC[C@@H](c2nc3ccc4cc5c(cc4c3[nH]2)OCc2cc(-c3cnc([C@@H]4CC[C@H](C)N4C(=O)[C@@H](NC(=O)OC)C(C)C)[nH]3)ccc2-5)N1C(=O)[C@@H](NC(=O)OC)C1CCOCC1` [Comp 3, reference compound], the EC50 in test [1] came to 0.065 nM; in test [2], 14.1 nM; in test [3], 0.014 nM; in test [4], 0.526 nM; in test [6], 0.061 nM; in test [7], 0.095 nM.
On to `CC[C@H](C)[C@H](NC(=O)OC)C(=O)N1[C@@H](C)CC[C@H]1c1ncc(-c2ccc3c(c2)COc2cc4c(ccc5nc([C@@H]6CC[C@H](C)N6C(=O)[C@@H](NC(=O)OC)C6CCOCC6)[nH]c54)cc2-3)[nH]1` [Comp 4, reference compound], for which the EC50 was 0.043 nM in test [1]; 0.695 nM in test [2]; 0.021 nM in test [3]; 0.432 nM in test [4]; 0.026 nM in test [6]; 0.074 nM in test [7]. The EC50 in test [8] was found to be 1.06 nM.
Take `CC[C@H](C)[C@H](NC(=O)OC)C(=O)N1[C@@H](C)CC[C@H]1c1ncc(-c2ccc3c(c2)COc2cc4c(ccc5nc([C@@H]6CC[C@H](C)N6C(=O)[C@@H](NC(=O)OC)C6C[C@@H](C)O[C@H](C)C6)[nH]c54)cc2-3)[nH]1` (stereo partly drawn) [Example AA, Methyl {(2S,3S)-1-[(2S,5S)-2-(5-{2-[(2S,5S)-1-{(2S)-2-[(2R,6R)-2,6-dimethyltetrahydro-2H-pyran-4-yl]-2-[(methoxycarbonyl)amino]acetyl}-5-methylpyrrolidin-2-yl]-1,11-dihydroisochromeno[4′,3′:6,7]naphtho[1,2-d]imidazol-9-yl}-1H-imidazol-2-yl)-5-methylpyrrolidin-1-yl]-3-methyl-1-oxopentan-2-yl}carbamate]: the EC50 in test [1] came to 0.014 nM; in test [2], 0.544 nM; in test [3] it was 0.008 nM; in test [4], 0.145 nM; in test [5], 0.014 nM; in test [6], 0.006 nM. Moreover, the EC50 came out at 0.029 nM in test [7] and 0.57 nM in test [8].
Consider `COC(=O)N[C@H](C(=O)N1[C@@H](C)CC[C@H]1c1ncc(-c2ccc3c(c2)COc2cc4c(ccc5nc([C@@H]6CC[C@H](C)N6C(=O)[C@@H](NC(=O)OC)[C@H]6C[C@@H](C)O[C@@H](C)C6)[nH]c54)cc2-3)[nH]1)C(C)C` [Example AM, Methyl {(2S)-1-[(2S,5S)-2-(5-{2-[(2S,5S)-1-{(2S)-2-[(2R,6S)-2,6-dimethyltetrahydro-2H-pyran-4-yl]-2-[(methoxycarbonyl)amino]acetyl}-5-methylpyrrolidin-2-yl]-1,11-dihydroisochromeno[4′,3′:6,7]naphtho[1,2-d]imidazol-9-yl}-1H-imidazol-2-yl)-5-methylpyrrolidin-1-yl]-3-methyl-1-oxobutan-2-yl}carbamate], for which the EC50 came to 0.011 nM in test [1]; 8.06 nM in test [2]; 0.01 nM in test [3]; 1.21 nM in test [4]; 0.008 nM in test [5]; 0.008 nM in test [6]. In addition, the values for the EC50 in test [7] and in test [8] were 0.023 nM and 4.65 nM, respectively.
Turning to `COC(=O)N[C@H](C(=O)N1[C@@H](C)CC[C@H]1c1nc2ccc3cc4c(cc3c2[nH]1)OCc1cc(-c2cnc([C@@H]3CC[C@H](C)N3C(=O)[C@@H](NC(=O)OC)[C@H]3C[C@@H](C)O[C@@H](C)C3)[nH]2)ccc1-4)C(C)C` [Example AO, Methyl {(2S)-1-[(2S,5S)-2-(9-{2-[(2S,5S)-1-{(2S)-2-[(2R,6S)-2,6-dimethyltetrahydro-2H-pyran-4-yl]-2-[(methoxycarbonyl)amino]acetyl}-5-methylpyrrolidin-2-yl]-1H-imidazol-5-yl}-1,11-dihydroisochromeno[4′,3′:6,7]naphtho[1,2-d]imidazol-2-yl)-5-methylpyrrolidin-1-yl]-3-methyl-1-oxobutan-2-yl}carbamate], the EC50 was 0.021 nM in test [1]; 9.06 nM in test [2]; 0.018 nM in test [3]; 1.78 nM in test [4]; 0.015 nM in test [5]; 0.017 nM in test [6]. Moreover, the EC50 in test [7] turned out to be 0.045 nM; in test [8], 9.03 nM.
For the molecule `COC(=O)N[C@H](C(=O)N1[C@@H](C)CC[C@H]1c1nc2ccc3cc4c(cc3c2[nH]1)OCc1cc(-c2cnc([C@@H]3CC[C@H](C)N3C(=O)[C@@H](NC(=O)OC)C3C[C@@H](C)O[C@H](C)C3)[nH]2)ccc1-4)C(C)C` (stereo partly shown) [Example AS], the EC50 in test [1] worked out at 0.051 nM; in test [2], 0.732 nM; in test [3], 0.024 nM; in test [4], 0.115 nM; in test [5], 0.026 nM; in test [6], 0.015 nM. The figures for the EC50 in test [7] and in test [8] were 0.064 nM and 0.325 nM, respectively.
On to `COC(=O)N[C@H](C(=O)N1[C@@H](C)CC[C@H]1c1ncc(-c2ccc3c(c2)COc2cc4c(ccc5nc([C@@H]6CC[C@H](C)N6C(=O)[C@@H](NC(=O)OC)C6C[C@@H](C)O[C@H](C)C6)[nH]c54)cc2-3)[nH]1)C1C[C@@H](C)O[C@H](C)C1` (stereo partly drawn) [Example AU, Methyl {(1S)-1-[(2R,6R)-2,6-dimethyltetrahydro-2H-pyran-4-yl]-2-[(2S,5S)-2-(5-{2-[(2S,5S)-1-{(2S)-2-[(2R,6R)-2,6-dimethyltetrahydro-2H-pyran-4-yl]-2-[(methoxycarbonyl)amino]acetyl}-5-methylpyrrolidin-2-yl]-1,11-dihydroisochromeno[4′,3′:6,7]naphtho[1,2-d]imidazol-9-yl}-1H-imidazol-2-yl)-5-methylpyrrolidin-1-yl]-2-oxoethyl}carbamate], for which the EC50 was determined as 0.029 nM in test [1]; 0.13 nM in test [2]; 0.017 nM in test [3]; 0.042 nM in test [4]; 0.017 nM in test [5]; 0.008 nM in test [6]. For the same molecule, the EC50 in test [7] was 0.023 nM; in test [8] it was 0.089 nM.
As for `COC[C@H]1C[C@@H](c2ncc(-c3ccc4c(c3)COc3cc5c(ccc6nc([C@@H]7CC[C@H](C)N7C(=O)[C@@H](NC(=O)OC)C7C[C@@H](C)O[C@H](C)C7)[nH]c65)cc3-4)[nH]2)N(C(=O)[C@@H](NC(=O)OC)C2C[C@@H](C)O[C@H](C)C2)C1` (stereo partly drawn) [Example BH, Methyl {(1S)-1-[(2R,6R)-2,6-dimethyltetrahydro-2H-pyran-4-yl]-2-[(2S,5S)-2-(9-{2-[(2S,4S)-1-{(2S)-2-[(2R,6R)-2,6-dimethyltetrahydro-2H-pyran-4-yl]-2-[(methoxycarbonyl)amino]acetyl}-4-(methoxymethyl)pyrrolidin-2-yl]-1H-imidazol-5-yl}-1,11-dihydroisochromeno[4′,3′:6,7]naphtho[1,2-d]imidazol-2-yl)-5-methylpyrrolidin-1-yl]-2-oxoethyl}carbamate], the EC50 in test [1] turned out to be 0.056 nM; in test [2] it was 0.612 nM; in test [3], 0.024 nM; in test [6], 0.055 nM; in test [7], 0.027 nM; in test [8], 0.082 nM.
